Measurements published in patent publication US10851108B2, “Substituted bicyclic heterocyclic compounds” (BRISTOL-MYERS SQUIBB COMPANY, priority 2016, dated 2020).

Key:
Format in all cases: cell-based
hROMK (human Kir1.1) = hROMK (human Kir1.1) (Homo sapiens (Human), UniProt P48048); assay: Thallium Flux Assay; settings: CHO T-Rex hROMK stable cell line, 10-point concentration response; read-out: hROMK Th+ Flux IC50
Outline: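 CHO T-Rex cells, doxycycline-induced (0.5 μg/ml) one day before, FluxOR dye-loaded; compounds 30 min, then Tl+ stimulus (final 3 mM Tl2SO4, 0.15 mM K2SO4) with ouabain in chloride-free buffer. Fluorescence 488/525 nm for 90 s; IC50 from 10-point curve; DMSO 0.5 or 1%.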

hERG = hERG (Homo sapiens (Human), UniProt Q12809); assay: hERG Manual Patch Clamp Assay; settings: human, HEK 293 cells stably expressing hERG channels; for inhibition at 1 µM: pH 7.4, 1 μM, read-out: hERG EP IC50 (% Inhibition at 1 μM); for inhibition at 3 µM: pH 7.4, 3 uM, read-out: hERG EP % Inhibition at 3 uM
Method: hERG Manual Patch Clamp Assay
hERG electrophysiology assay: The experimental compounds were assessed for hERG activity on HEK 293 cells stably expressing hERG channels using patch clamp technique. Coverslips plated with hERG expressing cells were placed in the experimental chamber and were perfused with a solution composed of (in mM): 140 NaCl, 4 KCl, 1.8 CaCl2, 1 MgCl2, 10 Glucose, 10 HEPES (pH 7.4, NaOH) at room temperature. Borosilicate patch pipettes had tip resistances of 2-4 Mohms when filled with an internal solution containing: 130 KCl, 1 MgCl2, 1 CaCl2, 10 EGTA, 10 HEPES, 5 ATP-K2 (pH 7.2, KOH). The cells were clamped at −80 mV in whole cell configuration using an Axopatch 200B (Axon instruments, Union City, Calif.) patch clamp amplifier controlled by pClamp (Axon instruments) software. Upon formation of a gigaseal, the following voltage protocol was repeatedly (0.05 Hz) applied to record tail currents: depolarization step from −80 mV to +20 mV for 2 seconds followed by a hyperpolarization step to −65 mV (3 seconds) to elicit tail currents. Compounds were applied after stabilization of tail current. First, tail currents were recorded in presence of extracellular solution alone (control) and subsequently, in extracellular solution containing increasing compound concentrations. Each compound concentration was applied for 2-5 minutes. The percentage inhibition at each concentration was calculated as reduction in peak tail current with respect to the peak tail current recorded in the presence of control solution. Data analysis was performed in a custom made template. The percent inhibitions at different concentrations were plotted to obtain a concentration response curve, which was subsequently fitted with a four parameter equation to calculate hERG IC50 value.
A lower hERG % Inhibition value indicates less inhibition of the hERG current

hROMK = hROMK (Homo sapiens (Human), UniProt P48048); assay: ROMK Manual Patch Clamp Assay; settings: whole-cell manual patch clamp, hROMK expressing cells; read-out: hROMK EP IC50
Method: ROMK Manual Patch Clamp Assay
Cell culture conditions: Cells were maintained in conditions similar to those for Thallium flux assay. hROMK channel expression was induced by adding 0.6 μg/ml of Doxycycline 16-24 hrs prior to the experiments. On the day of experiment, the cells were dissociated using Versene, resuspended in growth media and plated onto coverslips 15 minutes prior to use.
Electrophysiology: The coverslip plated with cells was placed in the experiment chamber perfused with bath solution composed of (in mM): 135 NaCl, 5 KCl, 2 CaCl2, 1 MgCl2, 10 HEPES, 5 Glucose (pH 7.4). Patch pipettes with resistance between 2-5 Megaohms, when filled with a solution containing (in mM): 135 KCl, 1 EGTA, 1 MgCl2, 10 HEPES, 2 Na2ATP (pH 7.3), were used to form gigaseals. The cells were voltage clamped at −75 mV in whole-cell configuration using an Axopatch 200b or Multiclamp 700b (Molecular Devices) amplifier controlled by pClamp Software (Molecular Devices). The current was recorded by applying a voltage step to −120 mV every 10 seconds. For each compound, 4-6 concentrations were applied for 3-8 minutes in a successive manner starting with the lowest concentration. At the end of the experiment, the cells were perfused with bath solution containing 2 mM Ba^2+ to isolate the contribution of hROMK current.
Data analysis: Raw current values (5 traces each for control, different compound concentration and Ba^2+ treatment groups) were exported from Clampfit into Microsoft Excel where the current remaining after application of Ba^2+ was subtracted from raw current to obtain hROMK specific current. These hROMK current values (average of 5 traces for each group) were then imported into a custom made template to generate a concentration response curve, which was subsequently fitted with a four parameter equation to calculate the IC50 value of the test compound.
The data in Table 4 is reported with two significant figures.

Sequence of hERG (Q12809 whole entry): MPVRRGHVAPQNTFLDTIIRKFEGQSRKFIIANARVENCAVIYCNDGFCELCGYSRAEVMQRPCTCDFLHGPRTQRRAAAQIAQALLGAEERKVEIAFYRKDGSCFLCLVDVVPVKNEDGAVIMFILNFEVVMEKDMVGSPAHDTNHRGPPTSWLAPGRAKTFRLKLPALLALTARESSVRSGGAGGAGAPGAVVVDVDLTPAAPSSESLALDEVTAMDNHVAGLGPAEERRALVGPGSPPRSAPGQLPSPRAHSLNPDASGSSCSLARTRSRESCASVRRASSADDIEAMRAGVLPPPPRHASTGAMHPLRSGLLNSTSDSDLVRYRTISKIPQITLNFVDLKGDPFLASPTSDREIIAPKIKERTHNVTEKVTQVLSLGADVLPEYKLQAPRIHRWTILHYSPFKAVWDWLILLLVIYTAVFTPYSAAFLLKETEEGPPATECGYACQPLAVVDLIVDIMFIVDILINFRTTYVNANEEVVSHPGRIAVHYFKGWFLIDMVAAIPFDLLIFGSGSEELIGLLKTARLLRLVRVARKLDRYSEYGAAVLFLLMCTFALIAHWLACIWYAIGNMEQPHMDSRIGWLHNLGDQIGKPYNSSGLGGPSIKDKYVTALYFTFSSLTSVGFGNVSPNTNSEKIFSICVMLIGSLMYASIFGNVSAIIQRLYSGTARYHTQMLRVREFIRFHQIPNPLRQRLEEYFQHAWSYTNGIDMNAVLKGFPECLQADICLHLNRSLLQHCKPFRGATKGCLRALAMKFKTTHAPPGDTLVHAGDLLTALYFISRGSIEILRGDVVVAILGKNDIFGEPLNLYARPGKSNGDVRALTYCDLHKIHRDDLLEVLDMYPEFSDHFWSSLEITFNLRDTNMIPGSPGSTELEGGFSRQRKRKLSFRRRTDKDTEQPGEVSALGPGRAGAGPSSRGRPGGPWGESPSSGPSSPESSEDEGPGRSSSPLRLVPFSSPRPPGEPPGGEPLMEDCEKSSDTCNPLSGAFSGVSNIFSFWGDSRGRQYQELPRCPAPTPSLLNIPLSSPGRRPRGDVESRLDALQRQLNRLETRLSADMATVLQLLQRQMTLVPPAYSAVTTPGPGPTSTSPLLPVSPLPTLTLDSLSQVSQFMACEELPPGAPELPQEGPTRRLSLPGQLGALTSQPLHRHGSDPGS
Sequence of hROMK (P48048 whole entry): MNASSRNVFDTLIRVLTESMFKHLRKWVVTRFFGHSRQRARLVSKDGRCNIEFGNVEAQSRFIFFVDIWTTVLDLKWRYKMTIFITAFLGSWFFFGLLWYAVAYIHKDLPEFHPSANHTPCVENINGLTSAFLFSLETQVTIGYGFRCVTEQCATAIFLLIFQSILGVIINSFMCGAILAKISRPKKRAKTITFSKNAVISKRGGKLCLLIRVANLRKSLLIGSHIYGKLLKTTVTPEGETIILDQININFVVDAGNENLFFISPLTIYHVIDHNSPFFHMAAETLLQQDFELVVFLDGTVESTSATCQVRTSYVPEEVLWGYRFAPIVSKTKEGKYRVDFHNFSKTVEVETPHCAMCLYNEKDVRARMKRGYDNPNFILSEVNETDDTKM
Sequence of hROMK (human Kir1.1) (P48048 whole entry): as above

IC50 (hROMK (human Kir1.1)) [nM]	IC50 (hROMK) [nM]	Compound	inhibition at 1 µM (hERG) [%]	inhibition at 3 µM (hERG) [%]	inhibition at 10 µM (hERG; pH 7.4, 10 uM, read-out: hERG EP % Inhibition at 10 uM) [%]
135	87	Cc1c(C(O)CN2CCc3nc(-n4cnc5ncccc54)ncc3C2)ccc2c1COC2=O (single isomer, unassigned) [Example 53-I, 5-(2-(2-(1H-imidazo[4,5-b]pyridin-1-yl)-7,8-dihydropyrido[4,3-d]pyrimidin-6(5H)-yl)-1-hydroxyethyl)-4-methylisobenzofuran-1(3H)-one]	13	34	
60	23	Cc1c(C(O)CN2CCc3nc(-n4ncc5ncccc54)ncc3C2)ccc2c1COC2=O (single isomer, unassigned) [Example 41-I, 5-(2-(2-(1H-pyrazolo[4,3-b]pyridin-1-yl)-7,8-dihydropyrido[4,3-d]pyrimidin-6(5H)-yl)-1-hydroxyethyl)-4-methylisobenzofuran-1(3H)-one]	11		
70	34	Cc1c(C(O)CN2CCc3nc(-n4ccc5c(C#N)cncc54)ncc3C2)ccc2c1COC2=O (single isomer, unassigned) [Example 42-I, 1-(6-(2-hydroxy-2-(4-methyl-1-oxo-1,3-dihydroisobenzofuran-5-yl)ethyl)-5,6,7,8-tetrahydropyrido[4,3-d]pyrimidin-2-yl)-1H-pyrrolo[2,3-c]pyridine-4-carbonitrile]	41		
62	13	Cc1cn(-c2ncc3c(n2)CCN(CC(O)c2ccc4c(c2C)COC4=O)C3)cn1 (single isomer, unassigned) [Example 58-I, 5-(1-hydroxy-2-(2-(4-methyl-1H-imidazol-1-yl)-7,8-dihydropyrido[4,3-d]pyrimidin-6(5H)-yl)ethyl)-4-methyl isobenzofuran-1(3H)-one]	9	20	42
